Measured values from PubChem BioAssay (NCI).
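The compound was tested at five concentrations on cells cultured in 96-well plates, with a 48-hour exposure period. The concentration for 50% growth inhibition is given as GI50. TGI denotes the concentration required for complete inhibition of growth.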 Where a SMILES comes first, the peptide text is derived from it. The star is where a group is joined. Fmoc = O=C(OCC1c2ccccc2-c2ccccc21)*; OBn = c1ccc(CO*)cc1; tBu = CC(C)(C)*

Tests used:
Assay in all cases: DTP human tumour cell line panel, 48 h
[1] = system: SK-MEL-28 melanoma
[2] = system: U251 CNS
[3] = system: SF-539 CNS
[4] = system: OVCAR-3 ovarian
[5] = system: K-562 leukemia
[6] = system: SNB-19 CNS
[7] = system: LOX IMVI melanoma
[8] = system: RXF 393 renal
[9] = system: HS 578T breast
[10] = system: DU-145 prostate

SMILES | TGI [1] [µM] | TGI [2] [µM] | TGI [3] [µM] | TGI [4] [µM] | TGI [5] [µM] | TGI [6] [µM] | TGI [7] [µM] | TGI [8] [µM] | GI50 [9] [µM] | TGI [9] [µM] | TGI [10] [µM] | GI50 [3] [µM] | GI50 [1] [µM] | GI50 [2] [µM] | GI50 [4] [µM] | GI50 [5] [µM] | GI50 [6] [µM] | GI50 [7] [µM] | GI50 [8] [µM] | GI50 [10] [µM]
CCOC(=O)c1c(-c2ccc(Cl)cc2)c(C#N)c(=S)n(C2OC(COC(C)=O)C(OC(C)=O)C(OC(C)=O)C2OC(C)=O)c1C (configuration not stated) | > 100 | > 100 | > 100 | > 100 | > 100 | > 100 | > 100 | > 100 | > 100 | > 100 | > 100 |  |  |  |  |  |  |  |  | 
CC1CC(C)(C)CC(OCCN2CCCCC2)(c2ccccc2)C1 (configuration not stated) | 29.7 | 25.5 | 29.4 | 22.5 | 28.7 | 26.7 | 21.3 | 23.8 |  | 32.4 | 19.8 |  |  |  |  |  |  |  |  | 
CCOC(=O)/C=C(/OCC)[C@@H]1C(C(=O)c2ccc(Cl)cc2)[C@@H]1/C(=C\C(=O)OCC)OCC (some centres not stated) | > 100 | > 100 | > 100 | > 100 | > 22.3 | > 100 | > 100 | > 78.5 |  | > 100 | > 100 |  |  |  |  |  |  |  |  | 
CC(OC(C)(C)C)C(NC(=O)OCC1c2ccccc2-c2ccccc21)C(=O)NC(Cc1ccccc1)C(=O)OCc1ccccc1 (configuration not stated) (Fmoc-Thr(tBu)-Phe-OBn; configuration not given here) | > 100 | > 100 | > 100 | > 100 | > 100 | > 100 | > 100 | > 100 |  | > 100 | > 100 |  |  |  |  |  |  |  |  | 
CC(=O)CCN1CC2CN=NC2(C#N)C1 (configuration not stated) | > 100 | > 100 | > 100 | > 100 | > 48.2 | > 100 | > 100 | > 100 |  | > 95.7 | > 100 | > 100 |  |  |  |  |  |  |  | 
Nc1c(-c2ccccc2)c2ccc([N+](=O)[O-])cc2c(=O)n1-c1cccc(C(=O)O)c1 | > 100 | > 100 | > 100 | > 100 | > 100 | > 100 | > 100 | > 100 |  | > 100 | > 100 |  |  |  |  |  |  |  |  | 
COC1=C(OC)C(=O)C(Cc2c(-c3ccccc3)nc3sc(Cl)cn23)=C(C)C1=O | 27 | 40.1 | 31.6 | 32 | 52.4 | 35.3 | 71.7 | 33.3 |  | 44.3 | 49.1 |  |  |  |  |  |  |  |  | 
COc1cc(/C=C2\C(=O)N(c3ccc(Cl)cc3)C(c3ccccc3)S2(=O)=O)cc(OC)c1OC (configuration not stated) | > 100 | > 100 | > 100 | > 100 | > 100 | > 100 | > 100 | > 100 |  | > 100 | > 100 |  |  |  |  |  |  |  |  | 
Oc1ccccc1/C=N/c1nc(-c2ccccc2)cs1 | > 100 | > 100 | 94.3 | > 100 | 68 | > 100 | 46.9 | 32.6 | 39 | > 100 | > 100 | 27.5 | > 100 | 28.5 | 30 | 19.6 | > 100 | 17.6 | 10.4 | 77.5
COc1ccc(C2CC(c3cccc(Nc4ccncc4)c3)=NN2c2ccccc2)cc1 (configuration not stated) | 3.24 | 3.8 | 3.04 | 3.52 | 5.05 | 5.79 | 3.11 | 3.02 | 1.82 | 3.87 | 6.51 | 1.61 | 1.69 | 1.94 | 1.86 | 2 | 2.2 | 1.74 | 1.55 | 2.57
O=[N+]([O-])C(/C=C(\Cl)[N+](=O)[O-])=C(Nc1ccccc1)Nc1ccccc1 | 24.6 | 27.6 | 24 | 17.3 | > 29.5 | 32.8 | 33.2 | 10.5 |  | 27.7 | 31.7 |  |  |  |  |  |  |  |  | 
COc1cc(-c2cc(OC)c(OC)c3ccc(Br)cc23)c2cc(Br)ccc2c1OC | 45.7 | 37.7 | 38.8 | 46.5 | 77.8 | > 100 | 46.6 | 41 |  | 94.4 | 93.4 |  |  |  |  |  |  |  |  | 
N#Cc1cc2c(n(C3OC(CO)C(O)C(O)C3O)c1=S)CCC2 (configuration not stated) | > 100 | > 100 | > 100 | > 100 | > 100 | > 100 | > 100 | > 100 |  | > 100 | > 100 |  |  |  |  |  |  |  |  | 
COc1ccc(Nc2nc(N)c(C(=O)c3ccco3)s2)cc1 | > 100 | > 100 | 63.2 | > 70.6 | > 100 | > 100 | > 100 | > 77.6 |  | > 100 | > 100 |  |  |  |  |  |  |  |  | 
